Measurements taken from patent publication US11154060B2, “Microbiocidal oxadiazole derivatives” (SYNGENTA PARTICIPATIONS AG, priority 2016, dated 2021).

Experiments:
[1] = system: Puccinia recondita f. sp. tritici; test: Puccinia recondita f. sp. tritici / wheat / leaf disc preventative (brown rust); assay type: in vivo; details: foliar, wheat leaf segments cv. Kanzler, inoculated 1 day after application, assessed 7-9 days after application, read-out: control of Puccinia recondita f. sp. tritici compared to untreated control
Protocol: Leaf disks or leaf segments of various plant species are cut from plants grown in a greenhouse. The cut leaf disks or segments are placed in multiwell plates (24-well format) onto water agar. The leaf disks are sprayed with a test solution before (preventative) or after (curative) inoculation. Compounds to be tested are prepared as DMSO solutions (max. 10 mg/ml) which are diluted to the appropriate concentration with 0.025% Tween20 just before spraying. The inoculated leaf disks or segments are incubated under defined conditions (temperature, relative humidity, light, etc.) according to the respective test system. A single evaluation of disease level is carried out 3 to 14 days after inoculation, depending on the pathosystem. Percent disease control relative to the untreated check leaf disks or segments is then calculated. Wheat leaf segments cv. Kanzler are placed on agar in multiwell plates (24-well format) and sprayed with the formulated test compound diluted in water. The leaf disks are inoculated with a spore suspension of the fungus 1 day after application. The inoculated leaf segments are incubated at 19° C. and 75% rh under a light regime of 12 h light/12 h darkness in a climate cabinet and the activity of a compound is assessed as percent disease control compared to untreated when an appropriate level of disease damage appears in untreated check leaf segments (7-9 days after application).

[2] = system: Puccinia recondita f. sp. tritici; test: Puccinia recondita f. sp. tritici / wheat / leaf disc curative (brown rust); assay type: in vivo; details: foliar, wheat leaf segments cv. Kanzler, applied 1 day after inoculation, assessed 6-8 days after application, read-out: control of Puccinia recondita f. sp. tritici compared to untreated control
Protocol: Leaf disks or leaf segments of various plant species are cut from plants grown in a greenhouse. The cut leaf disks or segments are placed in multiwell plates (24-well format) onto water agar. The leaf disks are sprayed with a test solution before (preventative) or after (curative) inoculation. Compounds to be tested are prepared as DMSO solutions (max. 10 mg/ml) which are diluted to the appropriate concentration with 0.025% Tween20 just before spraying. The inoculated leaf disks or segments are incubated under defined conditions (temperature, relative humidity, light, etc.) according to the respective test system. A single evaluation of disease level is carried out 3 to 14 days after inoculation, depending on the pathosystem. Percent disease control relative to the untreated check leaf disks or segments is then calculated. Wheat leaf segments cv. Kanzler are placed on agar in multiwell plates (24-well format). The leaf segments are inoculated with a spore suspension of the fungus. Plates are stored in darkness at 19° C. and 75% rh. The formulated test compound diluted in water is applied 1 day after inoculation. The leaf segments are incubated at 19° C. and 75% rh under a light regime of 12 h light/12 h darkness in a climate cabinet and the activity of a compound is assessed as percent disease control compared to untreated when an appropriate level of disease damage appears in untreated check leaf segments (6-8 days after application).

[3] = system: Phakopsora pachyrhizi; test: Phakopsora pachyrhizi / soybean / leaf disc preventative (Asian soybean rust); assay type: in vivo; details: foliar, soybean leaf disks, inoculated one day after application, assessed 12-14 days after application, read-out: control of Phakopsora pachyrhizi compared to untreated control
Protocol: Leaf disks or leaf segments of various plant species are cut from plants grown in a greenhouse. The cut leaf disks or segments are placed in multiwell plates (24-well format) onto water agar. The leaf disks are sprayed with a test solution before (preventative) or after (curative) inoculation. Compounds to be tested are prepared as DMSO solutions (max. 10 mg/ml) which are diluted to the appropriate concentration with 0.025% Tween20 just before spraying. The inoculated leaf disks or segments are incubated under defined conditions (temperature, relative humidity, light, etc.) according to the respective test system. A single evaluation of disease level is carried out 3 to 14 days after inoculation, depending on the pathosystem. Percent disease control relative to the untreated check leaf disks or segments is then calculated. Soybean leaf disks are placed on water agar in multiwell plates (24-well format) and sprayed with the formulated test compound diluted in water. One day after application leaf discs are inoculated by spraying a spore suspension on the lower leaf surface. After an incubation period in a climate cabinet of 24-36 hours in darkness at 20° C. and 75% rh leaf disc are kept at 20° C. with 12 h light/12 h darkness and 75% rh. The activity of a compound is assessed as percent disease control compared to untreated when an appropriate level of disease damage appears in untreated check leaf disks (12-14 days after application).

[4] = system: Uromyces viciae-fabae; test: Uromyces viciae-fabae / field bean / leaf disc preventative (faba-bean rust); assay type: in vivo; details: foliar, 288 h, 100 ppm in the applied formulation, field bean leaf discs, inoculated two hours after application, 12 days after application, read-out: disease control compared to untreated control leaf discs
Protocol: Leaf disks or leaf segments of various plant species are cut from plants grown in a greenhouse. The cut leaf disks or segments are placed in multiwell plates (24-well format) onto water agar. The leaf disks are sprayed with a test solution before (preventative) or after (curative) inoculation. Compounds to be tested are prepared as DMSO solutions (max. 10 mg/ml) which are diluted to the appropriate concentration with 0.025% Tween20 just before spraying. The inoculated leaf disks or segments are incubated under defined conditions (temperature, relative humidity, light, etc.) according to the respective test system. A single evaluation of disease level is carried out 3 to 14 days after inoculation, depending on the pathosystem. Percent disease control relative to the untreated check leaf disks or segments is then calculated. Field bean leaf discs are placed on water agar in multiwell plates (96-well format) and 10 μl of the formulated test compound diluted in acetone and a spreader pipetted onto the leaf disc. Two hours after application leaf discs are inoculated by spraying a spore suspension on the lower leaf surface. The leaf discs are incubated in a climate cabinet at 22° C. with 18 hour day and 70% relative humidity. The activity of a compound is assessed as percent disease control compared to untreated when an appropriate level of disease damage appears in untreated check leaf disks (12 days after application).

[5] = system: Glomerella lagenarium (Colletotrichum lagenarium); test: Glomerella lagenarium (Colletotrichum lagenarium) liquid culture / cucumber / preventative (anthracnose); assay type: cell-based; details: Colletotrichum orbiculare, liquid culture in PDB, 24° C., 3-4 days after application, read-out: control of Glomerella lagenarium compared to untreated control (inhibition of growth, photometric)
Protocol: Mycelia fragments or conidia suspensions of a fungus prepared either freshly from liquid cultures of the fungus or from cryogenic storage, are directly mixed into nutrient broth. DMSO solutions of the test compound (max. 10 mg/ml) are diluted with 0.025% Tween20 by a factor of 50 and 10 μl of this solution is pipetted into a microtiter plate (96-well format). The nutrient broth containing the fungal spores/mycelia fragments is then added to give an end concentration of the tested compound. The test plates are incubated in the dark at 24° C. and 96% relative humidity. The inhibition of fungal growth is determined photometrically after 2 to 7 days, depending on the pathosystem, and percent antifungal activity relative to the untreated check is calculated. Conidia of the fungus from cryogenic storage are directly mixed into nutrient broth (PDB potato dextrose broth). After placing a (DMSO) solution of test compound into a microtiter plate (96-well format), the nutrient broth containing the fungal spores is added. The test plates are incubated at 24° C. and the inhibition of growth is measured photometrically 3-4 days after application.

Row | SMILES | pest or weed control at 200 ppm [1] | pest or weed control at 200 ppm [2] | pest or weed control at 200 ppm [3] | pest or weed control at 100 ppm [4] | inhibition at 20 ppm [5]
1 | CON(C)C(=O)c1ccc(-c2noc(C(F)(F)F)n2)cc1F [Compound 1.2, 2-fluoro-N-methoxy-N-methyl-4-[5-(trifluoromethyl)-1,2,4-oxadiazol-3-yl]benzamide] | ≥ 80% | ≥ 80% | ≥ 80% | ≥ 80% | 
2 | CON(Cc1c(Cl)cc(Cl)cc1Cl)C(=O)c1ccc(-c2noc(C(F)(F)F)n2)cc1F [Compound 1.3, 2-fluoro-N-methoxy-N-[(2,4,6-trichlorophenyl)methyl]-4-[5-(trifluoromethyl)-1,2,4-oxadiazol-3-yl]benzamide] |  |  |  | ≥ 80% | 
3 | CON(C(=O)c1ccc(-c2noc(C(F)(F)F)n2)cc1F)C(C)COC1CCCCO1 (stereo not shown) [Compound 1.9, 2-fluoro-N-methoxy-N-(1-methyl-2-tetrahydropyran-2-yloxy-ethyl)-4-[5-(trifluoromethyl)-1,2,4-oxadiazol-3-yl]benzamide] |  |  |  | ≥ 80% | ≥ 80%
4 | CON(C(=O)c1ccc(-c2noc(C(F)(F)F)n2)cc1F)C(C)CO (stereo not shown) [Compound 1.12, 2-fluoro-N-(2-hydroxy-1-methyl-ethyl)-N-methoxy-4-[5-(trifluoromethyl)-1,2,4-oxadiazol-3-yl]benzamide] |  | ≥ 80% |  | ≥ 80% | ≥ 80%
5 | CON(C)C(=O)Cc1ccc(-c2noc(C(F)(F)F)n2)c(F)c1 [Compound 1.18, 2-[3-fluoro-4-[5-(trifluoromethyl)-1,2,4-oxadiazol-3-yl]phenyl]-N-methoxy-N-methyl-acetamide] | ≥ 80% | ≥ 80% | ≥ 80% |  | ≥ 80%
6 | CON(C(=O)Cc1ccc(-c2noc(C(F)(F)F)n2)c(F)c1)C(C)c1ccccc1 (stereo not shown) [Compound 1.24, 2-[3-fluoro-4-[5-(trifluoromethyl)-1,2,4-oxadiazol-3-yl]phenyl]-N-methoxy-N-(1-phenylethyl)acetamide] | ≥ 80% |  |  |  | ≥ 80%
7 | CON(C(=O)Cc1ccc(-c2noc(C(F)(F)F)n2)c(F)c1)C(C)C1CC1 (stereo not shown) [Compound 1.25, N-(1-cyclopropylethyl)-2-[3-fluoro-4-[5-(trifluoromethyl)-1,2,4-oxadiazol-3-yl]phenyl]-N-methoxy-acetamide] |  | ≥ 80% |  |  | ≥ 80%
8 | COC(=O)C1(N(O)C(=O)c2ccc(-c3noc(C(F)(F)F)n3)cc2)CCN(OC)CC1 [Compound 2.1, methyl 4-[hydroxy-[4-[5-(trifluoromethyl)-1,2,4-oxadiazol-3-yl]benzoyl]amino]-1-methoxy-piperidine-4-carboxylate] | ≥ 80% |  | ≥ 80% | ≥ 80% | ≥ 80%
9 | COC(=O)[C@H](C)N(OC)C(=O)c1ccc(-c2noc(C(F)(F)F)n2)cc1 [Compound 2.3, methyl (2S)-2-[methoxy-[4-[5-(trifluoromethyl)-1,2,4-oxadiazol-3-yl]benzoyl]amino]propanoate] |  | ≥ 80% |  | ≥ 80% | ≥ 80%
10 | COC(=O)C(C)N(OC)C(=O)c1ccc(-c2noc(C(F)(F)F)n2)cc1 (stereo not shown) [Compound 2.9, methyl 2-[methoxy-[4-[5-(trifluoromethyl)-1,2,4-oxadiazol-3-yl]benzoyl]amino]propanoate] |  | ≥ 80% |  | ≥ 80% | ≥ 80%
11 | CON(C(=O)Cc1ccc(-c2noc(C(F)(F)F)n2)cc1)C1COC1 [Compound 2.19, N-methoxy-N-(oxetan-3-yl)-2-[4-[5-(trifluoromethyl)-1,2,4-oxadiazol-3-yl]phenyl]acetamide] | ≥ 80% | ≥ 80% |  |  | ≥ 80%
12 | CON(C(=O)Cc1ccc(-c2noc(C(F)(F)F)n2)cc1)C(C)c1ccccc1 (stereo not shown) [Compound 2.20, N-methoxy-N-(1-phenylethyl)-2-[4-[5-(trifluoromethyl)-1,2,4-oxadiazol-3-yl]phenyl]acetamide] |  |  |  |  | ≥ 80%
13 | CON(C(=O)Cc1ccc(-c2noc(C(F)(F)F)n2)cc1)C(C)C1CC1 (stereo not shown) [Compound 2.21, N-(1-cyclopropylethyl)-N-methoxy-2-[4-[5-(trifluoromethyl)-1,2,4-oxadiazol-3-yl]phenyl]acetamide] |  |  |  |  | ≥ 80%
14 | CON(CC1CC1)C(=O)Cc1ccc(-c2noc(C(F)(F)F)n2)cc1 [Compound 2.22, N-(cyclopropylmethyl)-N-methoxy-2-[4-[5-(trifluoromethyl)-1,2,4-oxadiazol-3-yl]phenyl]acetamide] |  | ≥ 80% | ≥ 80% |  | ≥ 80%
15 | CON(CC1CC1C1CC1)C(=O)Cc1ccc(-c2noc(C(F)(F)F)n2)cc1 (stereo not shown) [Compound 2.25, N-[(2-cyclopropylcyclopropyl)methyl]-N-methoxy-2-[4-[5-(trifluoromethyl)-1,2,4-oxadiazol-3-yl]phenyl]acetamide] |  |  |  |  | ≥ 80%
16 | O=C(Cc1ccc(-c2noc(C(F)(F)F)n2)cc1)N(O)CC1CC1C1CC1 (stereo not shown) [Compound 2.26, N-[(2-cyclopropylcyclopropyl)methyl]-N-hydroxy-2-[4-[5-(trifluoromethyl)-1,2,4-oxadiazol-3-yl]phenyl]acetamide] | ≥ 80% | ≥ 80% |  |  | ≥ 80%
